Laboratory results reported in patent publication US6043228A, “O^6 -substituted guanine derivatives, a process for their preparation and their use in treating tumor cells” (Cancer Research Campaign Technology Limited, priority 1993, dated 2000).
Entries after “also recorded” stand apart in the source; their conditions may differ.

Tests used:
DBA2 mice = assay: Toxicity of inactivators in combination with temozolomide in non-tumour-bearing DBA2 mice; format: in vivo, mouse; conditions: 20 mg/kg inactivator + temozolomide 100 mg/kg i.p., four consecutive days (FIG. 25)
Experimental: FIG. 25 is a graph showing the survival of animals in a comparative test of toxicity of BeG, B.4205 and B.4280 in combination with temozolomide (TZ) in non-tumour-bearing DBA, mice. Animals were given temozolomide alone (100 mg/kg i.p) or BeG (10 or 20 mg/kg i.p.), B.4205 (10 or 20 mg/kg i.p.) or B.4280 (10 or 20 mg/kg i.p.) followed one hour later by temozolomide (100 mg/kg i.p.) on four consecutive days. The vehicles were corn oil for the inactivators and PBS (20% DMSO) for temozolomide.

recombinant human ATase = target: T1, recombinant human ATase (Homo sapiens, UniProt P16455); assay: In vitro ATase inactivation assay (incubation with inactivators and ATase assay); format: biochemical; conditions: for ATase inactivation in vitro, result in words: recombinant human ATase, standard conditions
T1 construct: made in house
T1 sequence (P16455 1-207): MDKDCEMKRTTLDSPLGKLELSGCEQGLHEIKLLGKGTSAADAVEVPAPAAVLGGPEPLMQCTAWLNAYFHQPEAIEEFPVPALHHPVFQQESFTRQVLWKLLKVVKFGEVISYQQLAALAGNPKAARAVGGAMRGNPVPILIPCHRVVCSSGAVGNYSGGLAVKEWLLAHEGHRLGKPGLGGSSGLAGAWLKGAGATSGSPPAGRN
Experimental: The cDNA cloning and overexpression of the human ATase has been reported previously^23. Purification of the recombinant proteins was achieved either by affinity chromatography through a DNA-cellulose column as described by Wilkinson et al.,^25, 26 or by DEAE-cellulose ion-exchange chromatography. For the latter, the ATase protein was partially purified by ammonium sulphate precipitation (30-60%) and dialysed against 10 mM Tris-HCl pH 7.5, 1 mM DTT, 2 mM EDTA, 10% glycerol, before loading on a DEAE-cellulose column. The ATase was then eluted with a 0-0.1 M NaCl gradient.
Compounds to be tested were dissolved in DMSO to a final concentration of 10 mM and diluted just before use in buffer I containing 1 mg/ml bovine serum albumin (IBSA). Recombinant ATase was diluted in IBSA and titrated in order that the reaction be conducted under ATase, and not substrate, limiting conditions. […] Following acid hydrolysis of the DNA as previously described^21 the [^3 H]-methylated protein was recovered and quantitated by liquid scintillation counting. Samples were typically assayed in duplicate and experiments repeated several times. I50 is the concentration of inactivator required to produce a 50% reduction in ATase activity.

[1] = test system: human melanoma xenografts; assay: Sensitization of human melanoma xenografts to temozolomide; format: in vivo, nude mice; conditions: for sensitizing human melanoma xenografts to growth inhibitory effects of temozolomide, in words: inactivator i.p. 1 hour before temozolomide 100 mg/kg i.p., five consecutive days (FIGS. 21A, 22A)
Experimental: Xenograft tumour measurements were taken every 1-2 days by workers using digital calipers. Tumour volume was calculated using the formula (h×w×l)π/6. The experimental animals were also weighed every 1-2 days. Measurements continued until tumours in the control animals reached the maximum allowable volume (i.e. 1 cm×1 cm×1 cm).
Mice were treated with the inactivator as a suspension in corn oil by intraperitoneal injection (i.p.) or by oral gavage (p.o.) 60 mins prior to temozolomide (100 mg/kg in 20% DMSO in phosphate-buffered saline) which was always given by intraperitoneal injection: this schedule was repeated on days 1 to 5 inclusive. Controls received vehicle alone, inactivator alone or temozolomide alone.
The mice in the tests shown in FIGS. 19-24 were Swiss mouse derived athymic male mice ([…]) from ZENECA Pharmaceuticals, Mereside, Alderley Park, Macclesfield, Cheshire SK10 4T6, England.

Raji cells = assay: Sensitization of Raji cells to temozolomide (XTT assay); format: cell-based, human
Experimental: Following a 2 hour incubation at 37° C., medium containing either increasing doses of BCNU, temozolomide or equivalent vehicle was added and the cells allowed to grow for 6 days. At this time XTT solution was added and the cells incubated for a further 4 hours at 37° C. The resulting red/orange formazan reaction product was quantified by measuring absorption at 450 nm on a microtitre platereader.

ATase = target: T2, ATase (Mus musculus, UniProt P26187); assay: ATase activity in tissues of nude mice after inactivator; format: in vivo; conditions: for inactivation of ATase in mouse tissues, in words: single dose (FIG. 18, Table 10)
T2 construct: Effect of B.4280 on ATase activity in several tissues of nude mice; from tissue; host or cells: liver, lung, kidney, spleen, brain, testis and bone marrow of nu/nu mice
T2 sequence (P26187 1-211): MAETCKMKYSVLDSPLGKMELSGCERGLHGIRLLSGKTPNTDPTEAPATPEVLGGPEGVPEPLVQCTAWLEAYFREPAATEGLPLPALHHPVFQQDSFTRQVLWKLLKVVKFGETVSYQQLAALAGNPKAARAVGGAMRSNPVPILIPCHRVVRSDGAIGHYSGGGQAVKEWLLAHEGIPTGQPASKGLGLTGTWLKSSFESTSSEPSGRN
Experimental: ATase substrate DNA was prepared by incubation of purified calf thymes DNA with N-[^3 H]-methyl-N-nitrosuourea (18.7 Ci/mmole, Amersham International). Cell or tissue extracts (see 4.4) were incubated with [^3 H]-methylated-DNA substrate (100 μl containing 6.7 μg of DNA and 100 fmol of O^6 -[^3 H]methylguanine) at 37° C. for 60 mins. Following acid hydrolysis of the DNA as precviously described^21the [^3 H]-methylated protein was recovered and quantitated by liquid scintillation counting. […]
The mice in the tests shown in FIGS. 17 and 18 were BALB-C derived athymic male mice (nu/nu athymic) from the in-house breeding colony at the Paterson Institute for Cancer Research as described above (Animal Services Unit-ASU Mice).
Animals were given a single dose of B.4280 (10 mg/kg i.p.) and sacrificed

Q: With `Nc1nc(OCc2cccs2)c2nc[nH]c2n1` [B.4205, 0^6 -thenylguanine] as the compound, how does the “acute toxicity in combination with temozolomide in DBA2 mice, in words” value (DBA2 mice) read?
A: The value was “less acutely toxic than BeG”.

Q: What about the “ATase inactivation in vitro, result in words” value (recombinant human ATase) of the same compound?
A: Its value is “considerably better; also recorded: I50 values lower than that of BeG”.

Q: What about the “sensitizing human melanoma xenografts to growth inhibitory effects of temozolomide, in words” value [1] of the same compound?
A: The value was “effective in sensitizing”.

Q: And the “sensitising Raji cells to growth inhibitory effects of temozolomide, in words” value (Raji cells; 0.1 μM inactivator (FIG. 3))?
A: Its value is “more effective than BeG”.

Q: And the “dose response of Raji sensitization to temozolomide, in words” value (Raji cells; 0.1-5.0 μM inactivator (FIGS. 3, 4))?
A: The value was “lack of dose response”.

Q: And the “inactivation of ATase in mouse tissues, in words” value (ATase)?
A: Its value is “able to inactivate ATase in most mouse tissues examined but there was less inactivation in brain than other tissues”.

Q: For `Nc1nc(OCc2cc(Br)cs2)c2nc[nH]c2n1` [B.4280, O^6-(4-bromothenyl)guanine], which “acute toxicity in combination with temozolomide in DBA2 mice, in words” value (DBA2 mice) is on record?
A: The value was “less acutely toxic than BeG; also recorded: less acutely toxic than B.4205”.

Q: And the IC50 (recombinant human ATase)?
A: Its IC50 is 3.4 nM.

Q: What about the “ATase inactivation in vitro, result in words” value (recombinant human ATase) of the same compound?
A: Its value is “more efficient in inactivating ATase in vitro than its 5-bromo analogue B.4269; also recorded: more efficient than the unsubstituted thenyl derivative B.4205”.

Q: What about the “oral versus i.p. administration in sensitizing xenografts to temozolomide, in words” value ([1]; 30 mg/kg p.o. vs 20 mg/kg i.p. (FIG. 24A)) of the same compound?
A: Its value is “almost as effective as i.p. administration”.

Q: And the “sensitizing human melanoma xenografts to growth inhibitory effects of temozolomide, in words” value [1]?
A: Its value is “effective in sensitizing; also recorded: about twice as effective as B.4205”.

Q: And the “sensitization of Raji cells to temozolomide, in words” value (Raji cells; 0.5 μM inactivator, 2 hours before temozolomide (FIG. 16))?
A: The value was “much more effective than either B.4205 or BeG”.

Q: What about the “ATase mean activity (fm/mg)” value (ATase; Bone Marrow (pooled), 24 h after 10 mg/kg i.p.) of the same compound?
A: The value was 42 fm/mg.

Q: What about the “ATase mean activity (fm/mg)” value (ATase; Bone Marrow (pooled), 48 h after 10 mg/kg i.p.) of the same compound?
A: The value was 61 fm/mg.

Q: What about the “ATase mean activity (fm/mg)” value (ATase; Brain, 24 h after 10 mg/kg i.p.) of the same compound?
A: Its value is 13.7 ± 2.05 fm/mg.

Q: And the “ATase mean activity (fm/mg)” value (ATase; Brain, 48 h after 10 mg/kg i.p.)?
A: The value was 16.3 ± 1.25 fm/mg.

Q: And the “ATase mean activity (fm/mg)” value (ATase; Kidney, 24 h after 10 mg/kg i.p.)?
A: The value was 24.3 ± 4.03 fm/mg.

Q: And the “ATase mean activity (fm/mg)” value (ATase; Kidney, 48 h after 10 mg/kg i.p.)?
A: Its value is 28.7 ± 4.11 fm/mg.

Q: What about the “ATase mean activity (fm/mg)” value (ATase; Liver, 24 h after 10 mg/kg i.p.) of the same compound?
A: The value was 89.7 ± 10.14 fm/mg.

Q: And the “ATase mean activity (fm/mg)” value (ATase; Liver, 48 h after 10 mg/kg i.p.)?
A: The value was 100.7 ± 8.73 fm/mg.

Q: What about the “ATase mean activity (fm/mg)” value (ATase; Lung, 24 h after 10 mg/kg i.p.) of the same compound?
A: The value was 15.3 ± 2.05 fm/mg.

Q: And the “ATase mean activity (fm/mg)” value (ATase; Lung, 48 h after 10 mg/kg i.p.)?
A: The value was 24 ± 2.83 fm/mg.

Q: And the “ATase mean activity (fm/mg)” value (ATase; Spleen, 24 h after 10 mg/kg i.p.)?
A: The value was 41 ± 5.35 fm/mg.

Q: And the “ATase mean activity (fm/mg)” value (ATase; Spleen, 48 h after 10 mg/kg i.p.)?
A: Its value is 68.3 ± 9.53 fm/mg.

Q: And the “ATase mean activity (fm/mg)” value (ATase; Testis, 24 h after 10 mg/kg i.p.)?
A: Its value is 45 ± 7.48 fm/mg.

Q: What about the “ATase mean activity (fm/mg)” value (ATase; Testis, 48 h after 10 mg/kg i.p.) of the same compound?
A: Its value is 44 ± 1.41 fm/mg.

Q: What about the “inactivation of ATase in mouse tissues, in words” value (ATase) of the same compound?
A: Its value is “able to inactivate ATase in most tissues”.
